Assays:
KK-A^y mice = assay: Glucose tolerance (glucose load) test in KK-A^y mice after 14-day administration; type: in vivo; details: for effect in glucose load test compared with Zn(2-AM-py)2Cl2 or Zn(Car)2Cl2 / diabetic condition in glucose load test: FIG. 21 and FIG. 22, 14-day intraperitoneal administration; for diabetic condition in glucose load test: vs diabetic control mice
Source text: This is a glucose load test effected according to the method described in Biochem. Biophys. Res. Comm., 281, 1190-1193 (2001), in which the zinc(II) complex of the invention was intraperitoneally administered to KK-A^y mice for 14 days or was not thereto. […]

rat fat cells = assay: Inhibition of free fatty acid release from epinephrine-stimulated rat fat cells; type: cell-based; details: 10^-5 M epinephrine, 3 hours at 37° C., VOSO4 is 1.00 mM, other values are relative to it, read-out: IC50 (mM), concentration that inhibits 50% fatty acid release
Experimental: According to the method described in Biol. Pharm.
In silicon-processed vials, the fat cells isolated in the above (2.5×10^6 cells/ml) were pre-incubated in 1 ml of KRB buffer that contains a varying concentration (10^−4, 5×10^−4, 10^−3 M) of VOSO4 different Zn(II) complexes of the invention and 20 mg/ml of BSA, at 37° C. for 0.5 hours. Next, 10^−5 M of epinephrine was added to the reaction mixture, and the resulting solution was incubated at 37° C. for 3 hours. The reaction was stopped by cooling the mixture with ice, and the mixture was centrifuged at 3000 rpm for 10 minutes. The free fatty acid (FFA) level in the extracellular solution was measured with an NEFA kit, and IC50 of the test compound was calculated.

In the case of “bis(2-aminomethylpyridine)/zinc(II) complex [Zn(2-AM-py)2Cl2]”, the “blood glucose level after 120 minutes” value (KK-A^y mice; FIG. 19, 13-hour fasting after 14-day intraperitoneal administration, 1 g/kg glucose orally) is reported as “almost the normal level”, the “peak top of blood glucose level after glucose administration” value (KK-A^y mice; FIG. 19, 13-hour fasting after 14-day intraperitoneal administration, 1 g/kg glucose orally, vs no complex administration) is reported as “low peak top” and the “blood glucose level after 120 minutes” value (KK-A^y mice; FIG. 20, 13-hour fasting after 14-day administration, 1 g/kg glucose orally) is reported as “almost the normal level”. The “peak top of blood glucose level after glucose administration” value (KK-A^y mice; FIG. 20, 13-hour fasting after 14-day administration, vs oral L-carnitine and acacia solution alone) was “low peak top” and the IC50 (rat fat cells) was 0.85 mM.

`O=S(=O)([O-])[O-].[O]=[V+2]` [VOSO4, oxovanadium sulfate, reference compound] was tested, and the IC50 (rat fat cells) was 1 mM.

For “L-carnitine (γ-trimethyl-β-hydroxybutyrobetaine=Car)/zinc(II) complex [Zn(Car)2Cl2]”, the IC50 (rat fat cells) was 0.8 mM.

Compound `C[C@H](O)C(=O)O.C[C@H](O)C(=O)O.[Zn]` [Zn(Lac)2, L-lactic Acid (Lac)/zinc(II) complex] has an IC50 (rat fat cells) of 0.81 mM.

In the case of “bis(vitamin U)/zinc(II) complex [Zn(Vit-U)Cl2]”, the “effect in glucose load test compared with Zn(2-AM-py)2Cl2 or Zn(Car)2Cl2” value (KK-A^y mice) is reported as “somewhat lower”, the “diabetic condition in glucose load test” value (KK-A^y mice) is reported as “significantly ameliorated” and the IC50 (rat fat cells) is reported as 0.84 mM.

“bis(glycyl-N,N′-ethylene-L-alanyl-L-alanine ethyl ester)/zinc(II) complex [Zn(Gly-eAA-OEt)2Cl2]” showed an IC50 (rat fat cells) of 0.85 mM.

For “bis-(S)-2-(1-aminoethyl)pyridine/zinc(II) complex [Zn((S)-2-AM-py)2Cl2]”, the IC50 (rat fat cells) was 0.39 mM.

`O=C1O[C@H]([C@@H](O)CO)C(O)=C1[O-].O=C1O[C@H]([C@@H](O)CO)C(O)=C1[O-].[Zn+2]` [Zn(Vit-C)2, bis(L-ascorbic acid)/zinc(II) complex] gave an IC50 (rat fat cells) of 0.8 mM.

“bis(quinic acid)/zinc(II) complex [Zn(Qui)2]” was tested, and the “effect in glucose load test compared with Zn(2-AM-py)2Cl2 or Zn(Car)2Cl2” value (KK-A^y mice) was “somewhat lower”, the “diabetic condition in glucose load test” value (KK-A^y mice) was “significantly ameliorated” and the IC50 (rat fat cells) was 0.98 mM.

“bis-(R)-2-(1-aminoethyl)pyridine (=α-pyridylethylamine)/zinc(II) complex [Zn((R)-2-AM-py)2Cl2]” gave an IC50 (rat fat cells) of 0.4 mM.

From patent US7226935B2, “Hypoglycemic agent” (Japan Science and Technology Corporation, priority 2001, dated 2007)
